Test results taken from US10849904B2, “Methods for treatment of retinal disease by photoreceptor gene expression modulation” (University of Washington, priority 2015, dated 2020).

Tests used:
retinas from P0 mice = assay: P0 mouse retinal explants: Western blot, qPCR, immunohistochemistry; format: cell-based; details: 1 μM
Procedure: Loss-of-function mutations in Nr2e3 cause an increase in the number of S-opsin+ photoreceptors and a decrease in rhodopsin expression. To determine whether PR1 has similar effects on developing photoreceptors, retinas from P0 mice were explanted in media containing DMSO or 1 μM PR1 and assessed the level of rod genes with Western blots and qPCR after two to five days in vitro (FIG. 7A). […] Expression of additional genes was tested using qPCR. After 2 days in culture PR1 decreased the expression of the rod specific genes Nrl, Nr2e3, Rho, and Gnat1 compared to DMSO (FIG. 7D).
Intact retinas without RPE from mice of various strains and ages as indicated were explanted on 0.4 μm pore tissue culture inserts (Millipore) as previously described (Ueki, Y., et al., P53 is required for the developmental restriction in Muller glial proliferation in mouse retina. Glia, 2012. 60(10): p. 1579-89; Ueki, Y., et al., A transient wave of BMP signaling in the retina is necessary for Muller glial differentiation. Development, 2015. 142(3): p. 533-43. Full media (DMEM/F12 (1:1) containing 1% dialyzed FBS, 1% Pen Strep, 0.3% D+ glucose, 2% B27, and 1% N2) changes were performed every other day and small molecules were used at 0.1 μM to 10 μM. Where indicated, EdU (Invitrogen) was included in the media at 5 μg/mL and visualized by staining with the Click-iT EdU Alexa Fluor kit (Thermo Fisher Scientific). For human retinal explant cultures, tissue from 113 day post-conception fetuses was obtained from the University of Washington Birth Defects Laboratory and explanted on 0.4 μm pore tissue culture inserts (Millipore) in media (Neurobasal A with 1% FBS, 1% Pen Strep, 1% N2, 1% B27) containing 10 μM Photoregulin1 or an equal volume of DMSO.
(§1) RNA was isolated using TRIzol (Invitrogen) and cDNA was synthesized using the iScript cDNA synthesis kit (Bio-Rad) following an intervening DNase treatment with RQ1 RNase-free DNase (Promega). SSO Fast (Bio-Rad) was used for quantitative real-time PCR. For analysis, values were normalized to Gapdh and ΔΔCt between DMSO and compound-treated samples was expressed as percent of DMSO treated controls (100*2^ΔΔCt). Two-way Student's t-tests were performed on ΔCt values.
Retinal explants or eyecups were fixed in 4% PFA in 1×PBS for 20 minutes at room temperature and then cryoprotected in 30% sucrose in 1×PBS overnight at 4° C. Samples were embedded in OCT (Sakura Finetek), frozen on dry ice, and then sectioned at 14-16 μm on a cryostat (Leica). Slides were blocked with a solution containing 10% Normal Horse Serum (Vector Labs) and 0.5% Triton X-100 (Sigma-Aldrich) in 1×PBS for 1 hour at room temperature and then stained overnight at 4° C. with primary antibodies diluted in blocking solution. Slides were washed three times with 1×PBS the following day and then incubated in secondary antibodies (Life Technologies) diluted in blocking solution for 2 hours at room temperature, stained with DAPI (Sigma-Aldrich), washed, and coverslipped using Fluoromount-G (SouthernBiotech). An Olympus FluoView FV1000 was used for confocal microscopy.
(§2) Retinal explants or retinas were homogenized in lysis buffer (50 mM Tris, 100 mM NaCl, 5 mM EDTA, 0.1% SDS, 1% Triton X-100, 2.5% glycerol, and 1× protease inhibitor cocktail) and equal amounts of protein samples were loaded and run in a 4-20% SDS gel (Bio-Rad). Protein was transferred to a PVDF membrane (Thermo Fisher Scientific), blocked (5% BSA and 0.1% Tween 20 in 1×PBS) and stained with primary antibodies (Supplemental Table S2) and then HRP-conjugated secondaries (Bio-Rad) diluted in blocking solution. Signals were visualized on X-ray film with SuperSignal West Dura Extended Duration Substrate (Thermo Fisher Scientific) and quantified using ImageJ software (NIH).

retinas of adult mice = assay: Intravitreal injection in adult mice, qPCR and Western blot; format: in vivo, mouse
Text: Conditional deletion of Nr2e3 in mature photoreceptors has not been reported; however, deletion of Nrl in mature photoreceptors leads to a partial “reprogramming” of the rods: the cells have reduced rod gene expression and an increase in the expression of some cone genes. Because PR1 reduces rod gene expression, including Nrl, in rods even at late stages in their development (P12), it was postulated that PR1 might have similar effects in the retinas of adult mice. To determine if PR1 affects adult photoreceptor gene expression in vivo, intravitreal injections in one eye of an adult mouse (>P21) were made and compared expression to the other eye.
as §1, §2
For intravitreal injections, adult mice (>P21) were anesthetized with isoflurane and injected with 1.5 μl of 10 mM PR1 using a 32-gauge Hamilton needle. Postnatal pups were injected intraperitoneally (IP) with 20 μl of 50 mM PR1 or 20 μl of DMSO at P2 or P3 with a 32-gauge Hamilton needle. Timed-pregnant dams were injected IP with 100 μl of 50 mM PR1 at E14 and E17 with a BD insulin syringe.

[1] = adult mice (>P21), two intravitreal injections over four days, vs other eye
[2] = adult retinas, intravitreal injection

Question: Cc1cc(C)cc(NC(=O)CCc2nc3sc4c(c3c(=O)[nH]2)CCCC4)c1 [PR1, N-(3,5-dimethylphenyl)-3-(4-oxo-5,6,7,8-tetrahydro-3H-[1]benzothiolo[2,3-d]pyrimidin-2-yl)propanamide] was tested. Which “rhodopsin protein, Western blot” value (retinas from P0 mice; 5 DIV, vs DMSO) did it give?
Answer: Its value is “less rhodopsin protein”.

Question: And the Crx expression (retinas from P0 mice; 2 days, qPCR, vs DMSO)?
Answer: Its Crx expression is “did not significantly decrease”.

Question: What about the Gnat1 expression (retinas from P0 mice; 2 days, qPCR, vs DMSO) of the same compound?
Answer: Its Gnat1 expression is “decreased”.

Question: What about the Gnb1 expression (retinas from P0 mice; 2 days, qPCR, vs DMSO) of the same compound?
Answer: The Gnb1 expression was “did not significantly decrease”.

Question: And the Nr2e3 expression (retinas from P0 mice; 2 days, qPCR, vs DMSO)?
Answer: Its Nr2e3 expression is “decreased”.

Question: And the Nrl expression (retinas from P0 mice; 2 days, qPCR, vs DMSO)?
Answer: Its Nrl expression is “decreased”.

Question: What about the Otx2 expression (retinas from P0 mice; 2 days, qPCR, vs DMSO) of the same compound?
Answer: The Otx2 expression was “did not significantly decrease”.

Question: What about the Rho expression (retinas from P0 mice; 2 days, qPCR, vs DMSO) of the same compound?
Answer: Its Rho expression is “decreased”.

Question: And the “rhodopsin immunoreactivity in sections” value (retinas from P0 mice; immunohistochemistry)?
Answer: Its value is “almost complete absence of rhodopsin immunoreactivity”.

Question: What about the “Thrb (cone gene) expression” value (retinas from P0 mice; qPCR, vs DMSO) of the same compound?
Answer: Its value is “increased”.

Question: What about the “level of S opsin immunoreactivity in sectioned explants” value (retinas from P0 mice; vs DMSO) of the same compound?
Answer: Its value is “overall increase”.

Question: What about the “Rho mRNA expression by qPCR” value (retinas of adult mice; [1]) of the same compound?
Answer: The value was “decreased”.

Question: What about the “rhodopsin protein by Western blot” value (retinas of adult mice; [1]) of the same compound?
Answer: The value was “decreased”.

Question: What about the S opsin (retinas of adult mice; [2]) of the same compound?
Answer: The S opsin was “not observed”.

Question: What about the “expression of the cone photoreceptor marker TRβ2” value (retinas of adult mice; [2]) of the same compound?
Answer: The value was “increased”.
